± gives the uncertainty stated by the source.
Test: xn = mol fraction of the nth substance listed

Work on `CCCC(=O)[O-].OCC[NH2+]CCO` + CC(=O)O.NCCO yielded a viscosity (293.15 K, 101.3 kPa, x2 = 0.1516) of 1991 ± 120 mPa·s, a viscosity (293.15 K, 101.3 kPa, x2 = 0.2854) of 2150 ± 130 mPa·s and a viscosity (293.15 K, 101.3 kPa, x2 = 0.4059) of 2309 ± 150 mPa·s. The viscosity (293.15 K, 101.3 kPa, x2 = 0.5163) was 2468 ± 160 mPa·s, the viscosity (293.15 K, 101.3 kPa, x2 = 0.6146) was 2628 ± 170 mPa·s and the viscosity (293.15 K, 101.3 kPa, x2 = 0.7052) was 2787 ± 180 mPa·s. The viscosity (293.15 K, 101.3 kPa, x2 = 0.7885) was 2946 ± 200 mPa·s, the viscosity (293.15 K, 101.3 kPa, x2 = 0.8646) was 3105 ± 210 mPa·s and the viscosity (293.15 K, 101.3 kPa, x2 = 0.9348) was 3264 ± 220 mPa·s. The viscosity (298.15 K, 101.3 kPa, x2 = 0.1516) was 1330 ± 77 mPa·s, the viscosity (298.15 K, 101.3 kPa, x2 = 0.2854) was 1434 ± 85 mPa·s and the viscosity (298.15 K, 101.3 kPa, x2 = 0.4059) was 1538 ± 92 mPa·s. It also gave a viscosity (298.15 K, 101.3 kPa, x2 = 0.5163) of 1642 ± 100 mPa·s, a viscosity (298.15 K, 101.3 kPa, x2 = 0.6146) of 1746 ± 110 mPa·s and a viscosity (298.15 K, 101.3 kPa, x2 = 0.7052) of 1850 ± 120 mPa·s. For the same compound, the viscosity (298.15 K, 101.3 kPa, x2 = 0.7885) was 1955 ± 120 mPa·s, the viscosity (298.15 K, 101.3 kPa, x2 = 0.8646) was 2059 ± 130 mPa·s and the viscosity (298.15 K, 101.3 kPa, x2 = 0.9348) was 2163 ± 140 mPa·s. It also gave a viscosity (303.15 K, 101.3 kPa, x2 = 0.1516) of 906.1 ± 50 mPa·s, a viscosity (303.15 K, 101.3 kPa, x2 = 0.2854) of 972.3 ± 54 mPa·s and a viscosity (303.15 K, 101.3 kPa, x2 = 0.4059) of 1039 ± 59 mPa·s. For the same compound, the viscosity (303.15 K, 101.3 kPa, x2 = 0.5163) was 1105 ± 63 mPa·s, the viscosity (303.15 K, 101.3 kPa, x2 = 0.6146) was 1171 ± 68 mPa·s and the viscosity (303.15 K, 101.3 kPa, x2 = 0.7052) was 1237 ± 73 mPa·s. It also gave a viscosity (303.15 K, 101.3 kPa, x2 = 0.7885) of 1303 ± 78 mPa·s, a viscosity (303.15 K, 101.3 kPa, x2 = 0.8646) of 1370 ± 83 mPa·s and a viscosity (303.15 K, 101.3 kPa, x2 = 0.9348) of 1436 ± 87 mPa·s. For the same compound, the viscosity (308.15 K, 101.3 kPa, x2 = 0.1516) was 631.9 ± 33 mPa·s, the viscosity (308.15 K, 101.3 kPa, x2 = 0.2854) was 675.2 ± 36 mPa·s and the viscosity (308.15 K, 101.3 kPa, x2 = 0.4059) was 718.4 ± 39 mPa·s. The viscosity (308.15 K, 101.3 kPa, x2 = 0.5163) was 761.7 ± 42 mPa·s, the viscosity (308.15 K, 101.3 kPa, x2 = 0.6146) was 804.9 ± 44 mPa·s and the viscosity (308.15 K, 101.3 kPa, x2 = 0.7052) was 848.2 ± 47 mPa·s. The viscosity (308.15 K, 101.3 kPa, x2 = 0.7885) was 891.4 ± 50 mPa·s, the viscosity (308.15 K, 101.3 kPa, x2 = 0.8646) was 934.7 ± 53 mPa·s and the viscosity (308.15 K, 101.3 kPa, x2 = 0.9348) was 978 ± 56 mPa·s. For the same compound, the viscosity (313.15 K, 101.3 kPa, x2 = 0.1516) was 450.1 ± 22 mPa·s, the viscosity (313.15 K, 101.3 kPa, x2 = 0.2854) was 479.1 ± 24 mPa·s and the viscosity (313.15 K, 101.3 kPa, x2 = 0.4059) was 508.1 ± 26 mPa·s. It also gave a viscosity (313.15 K, 101.3 kPa, x2 = 0.5163) of 537.1 ± 28 mPa·s, a viscosity (313.15 K, 101.3 kPa, x2 = 0.6146) of 566.1 ± 30 mPa·s and a viscosity (313.15 K, 101.3 kPa, x2 = 0.7052) of 595.1 ± 32 mPa·s. For the same compound, the viscosity (313.15 K, 101.3 kPa, x2 = 0.7885) was 624.1 ± 34 mPa·s, the viscosity (313.15 K, 101.3 kPa, x2 = 0.8646) was 653.1 ± 36 mPa·s and the viscosity (313.15 K, 101.3 kPa, x2 = 0.9348) was 682.1 ± 38 mPa·s. The viscosity (318.15 K, 101.3 kPa, x2 = 0.1516) was 327 ± 16 mPa·s, the viscosity (318.15 K, 101.3 kPa, x2 = 0.2854) was 347 ± 17 mPa·s and the viscosity (318.15 K, 101.3 kPa, x2 = 0.4059) was 366.9 ± 18 mPa·s. The viscosity (318.15 K, 101.3 kPa, x2 = 0.5163) was 386.9 ± 19 mPa·s, the viscosity (318.15 K, 101.3 kPa, x2 = 0.6146) was 406.8 ± 21 mPa·s and the viscosity (318.15 K, 101.3 kPa, x2 = 0.7052) was 426.8 ± 22 mPa·s. For the same compound, the viscosity (318.15 K, 101.3 kPa, x2 = 0.7885) was 446.7 ± 23 mPa·s, the viscosity (318.15 K, 101.3 kPa, x2 = 0.8646) was 466.7 ± 24 mPa·s and the viscosity (318.15 K, 101.3 kPa, x2 = 0.9348) was 486.6 ± 26 mPa·s. For the same compound, the viscosity (323.15 K, 101.3 kPa, x2 = 0.1516) was 242 ± 11 mPa·s, the viscosity (323.15 K, 101.3 kPa, x2 = 0.2854) was 256 ± 12 mPa·s and the viscosity (323.15 K, 101.3 kPa, x2 = 0.4059) was 270.1 ± 13 mPa·s. It also gave a viscosity (323.15 K, 101.3 kPa, x2 = 0.5163) of 284.1 ± 14 mPa·s, a viscosity (323.15 K, 101.3 kPa, x2 = 0.6146) of 298.1 ± 14 mPa·s and a viscosity (323.15 K, 101.3 kPa, x2 = 0.7052) of 312.2 ± 15 mPa·s. It also gave a viscosity (323.15 K, 101.3 kPa, x2 = 0.7885) of 326.2 ± 16 mPa·s, a viscosity (323.15 K, 101.3 kPa, x2 = 0.8646) of 340.2 ± 17 mPa·s and a viscosity (323.15 K, 101.3 kPa, x2 = 0.9348) of 354.3 ± 18 mPa·s.

With `COc1ccccc1` + CC(C)(C)O the viscosity (303.15 K, 100.33 kPa, x1 = 0.1) was 2.101 ± 0.019 mPa·s, the viscosity (303.15 K, 100.33 kPa, x1 = 0.1999) was 1.758 ± 0.015 mPa·s and the viscosity (303.15 K, 100.33 kPa, x1 = 0.3002) was 1.484 ± 0.013 mPa·s. It also gave a viscosity (303.15 K, 100.33 kPa, x1 = 0.4001) of 1.272 ± 0.011 mPa·s, a viscosity (303.15 K, 100.33 kPa, x1 = 0.5) of 1.143 ± 0.01 mPa·s and a viscosity (303.15 K, 100.33 kPa, x1 = 0.6001) of 1.011 ± 0.009 mPa·s. It also gave a viscosity (303.15 K, 100.33 kPa, x1 = 0.6998) of 0.954 ± 0.008 mPa·s, a viscosity (303.15 K, 100.33 kPa, x1 = 0.8001) of 0.928 ± 0.008 mPa·s and a viscosity (303.15 K, 100.33 kPa, x1 = 0.9001) of 0.919 ± 0.008 mPa·s. It also gave a viscosity (313.15 K, 100.33 kPa, x1 = 0.1) of 1.585 ± 0.014 mPa·s, a viscosity (313.15 K, 100.33 kPa, x1 = 0.1999) of 1.29 ± 0.012 mPa·s and a viscosity (313.15 K, 100.33 kPa, x1 = 0.3002) of 1.099 ± 0.01 mPa·s. The viscosity (313.15 K, 100.33 kPa, x1 = 0.4001) was 1.002 ± 0.009 mPa·s, the viscosity (313.15 K, 100.33 kPa, x1 = 0.5) was 0.915 ± 0.008 mPa·s and the viscosity (313.15 K, 100.33 kPa, x1 = 0.6001) was 0.853 ± 0.008 mPa·s. For the same compound, the viscosity (313.15 K, 100.33 kPa, x1 = 0.6998) was 0.825 ± 0.007 mPa·s, the viscosity (313.15 K, 100.33 kPa, x1 = 0.8001) was 0.808 ± 0.007 mPa·s and the viscosity (313.15 K, 100.33 kPa, x1 = 0.9001) was 0.798 ± 0.007 mPa·s. For the same compound, the viscosity (323.15 K, 100.33 kPa, x1 = 0.1) was 1.222 ± 0.011 mPa·s, the viscosity (323.15 K, 100.33 kPa, x1 = 0.1999) was 1.022 ± 0.009 mPa·s and the viscosity (323.15 K, 100.33 kPa, x1 = 0.3002) was 0.887 ± 0.008 mPa·s. For the same compound, the viscosity (323.15 K, 100.33 kPa, x1 = 0.4001) was 0.815 ± 0.008 mPa·s, the viscosity (323.15 K, 100.33 kPa, x1 = 0.5) was 0.773 ± 0.007 mPa·s and the viscosity (323.15 K, 100.33 kPa, x1 = 0.6001) was 0.743 ± 0.007 mPa·s. For the same compound, the viscosity (323.15 K, 100.33 kPa, x1 = 0.6998) was 0.722 ± 0.007 mPa·s, the viscosity (323.15 K, 100.33 kPa, x1 = 0.8001) was 0.711 ± 0.006 mPa·s and the viscosity (323.15 K, 100.33 kPa, x1 = 0.9001) was 0.701 ± 0.006 mPa·s.

Work on `CC1COC(=O)O1` (configuration not stated) + CC(C)=O yielded a viscosity (303.15 K, 101.3 kPa, x1 = 0.088) of 0.3518 ± 0.0072 mPa·s, a viscosity (303.15 K, 101.3 kPa, x1 = 0.1784) of 0.4187 ± 0.0082 mPa·s and a viscosity (303.15 K, 101.3 kPa, x1 = 0.2713) of 0.5016 ± 0.0094 mPa·s. It also gave a viscosity (303.15 K, 101.3 kPa, x1 = 0.3668) of 0.6038 ± 0.011 mPa·s, a viscosity (303.15 K, 101.3 kPa, x1 = 0.4647) of 0.7316 ± 0.013 mPa·s and a viscosity (303.15 K, 101.3 kPa, x1 = 0.5657) of 0.8959 ± 0.015 mPa·s. It also gave a viscosity (303.15 K, 101.3 kPa, x1 = 0.6697) of 1.104 ± 0.018 mPa·s, a viscosity (303.15 K, 101.3 kPa, x1 = 0.7768) of 1.371 ± 0.023 mPa·s and a viscosity (303.15 K, 101.3 kPa, x1 = 0.8864) of 1.71 ± 0.028 mPa·s.

`c1ccc2ccccc2c1` + CC(C)=O showed a viscosity (298.15 K, 101 kPa, x1 = 0.1688) of 0.487 ± 0.012 mPa·s, a viscosity (298.15 K, 101 kPa, x1 = 0.2356) of 0.5618 ± 0.014 mPa·s and a viscosity (303.15 K, 101 kPa, x1 = 0.1688) of 0.464 ± 0.012 mPa·s. For the same compound, the viscosity (303.15 K, 101 kPa, x1 = 0.2356) was 0.5296 ± 0.013 mPa·s, the viscosity (308.15 K, 101 kPa, x1 = 0.1688) was 0.4428 ± 0.011 mPa·s and the viscosity (308.15 K, 101 kPa, x1 = 0.2356) was 0.5029 ± 0.013 mPa·s. The viscosity (313.15 K, 101 kPa, x1 = 0.1688) was 0.4207 ± 0.011 mPa·s and the viscosity (313.15 K, 101 kPa, x1 = 0.2356) was 0.4781 ± 0.012 mPa·s.
